According to PubChem BioAssay (NCI):
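Step 1: Grow cells in 96-well plates. Step 2: Expose to compound for 48 hours at 5 concentrations. Step 3: Interpolate endpoints linearly; if unreached, use highest concentration. TGI is the concentration that stops growth completely.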

What was measured:
Test in all cases: NCI-60 cell line screen, 48 h
[1] = tested on: KM20L2 colon
[2] = tested on: XF 498 CNS
[3] = tested on: RXF-631 renal
[4] = tested on: DMS 114 small cell lung
[5] = tested on: DMS 273 small cell lung
[6] = tested on: HOP-18 NSCLC

Row | Structure (SMILES) | TGI [1] | TGI [2] | TGI [3] | TGI [4] | TGI [5] | TGI [6]
1 | COc1ccc(C2CC(C)=Nc3c([nH]c(=S)[nH]c3=O)N2)cc1 (centres undefined) | 31.7 µM | 59.4 µM | > 100 µM | 38.8 µM | 35.9 µM | > 100 µM
2 | Clc1ccc(CCN2CCOCC2)c(Cl)c1 | > 100 µM | > 100 µM | > 100 µM | > 100 µM |  | > 100 µM
3 | OCC1CC2CC1C1(C2)OCCO1 (centres undefined) | > 100 µM | > 100 µM | > 100 µM | > 100 µM | > 100 µM | > 100 µM
4 | N#CC(/C(=N\NC(N)=S)C(=O)NC1C2CC3CC(C2)CC1C3)c1ccc(Cl)cc1 (centres undefined) | > 100 µM | > 100 µM | > 100 µM | > 100 µM | > 100 µM | > 100 µM
5 | c1ccc(CN(Cc2ccccn2)Cn2cccn2)nc1 | > 100 µM | > 100 µM | > 100 µM | 54.6 µM | > 100 µM | 
6 | Cc1nc(Nc2ccc([N+](=O)[O-])cc2)sc1C(=O)/C=C/c1ccc(N(C)C)cc1 | > 100 µM |  | > 100 µM | > 100 µM | > 100 µM | > 100 µM
7 | O=C(O)CNS(=O)(=O)c1ccc(NC(=O)c2cccc([N+](=O)[O-])c2)cc1 | > 100 µM | > 100 µM | > 100 µM |  | > 100 µM | > 100 µM
8 | O=C1C=Cc2noc3cccc1c23 | 34 µM |  | 27.9 µM | 4.99 µM | 20.4 µM | 33.6 µM
9 | COc1ccc(-c2nc(N)nc(-c3cc(C)ccc3O)c2Cl)cc1 | > 100 µM | 64.3 µM | > 100 µM | > 100 µM | > 100 µM | > 100 µM
10 | O=C(O)C1C2CC3CC2CC31 (centres undefined) |  | > 100 µM | > 100 µM | > 100 µM | > 100 µM | 
11 | Cc1ccc(C)c(NC(=O)CCc2n[nH]c(=S)o2)c1 | > 100 µM | > 100 µM | > 100 µM | > 100 µM | > 100 µM | > 100 µM
